Data on three compounds can be found in ChEMBL document CHEMBL1127951, “Synthesis and RNA cleaving activities of polyamine derived novel artificial ribonuclease” (Bioorg Med Chem Lett, 1994).

The test system of the experiment is Nucleic Acid. As to the kind of experiment: Binding affinity towards calf thymus DNA was determined. The class given is nucleic-acid assay. The conditions noted are these: Bos taurus.
As to `NCCN(CCN)CCNC(=O)c1c2ccccc2nc2ccccc12`, the K was 150000 M⁻¹. Turning to `NCCN(CCNC(=O)Cc1c[nH]cn1)CCNC(=O)c1c2ccccc2nc2ccccc12`, the K was determined as 22000 M⁻¹.

In the case of `NCCC(=O)NCCN(CCNC(=O)Cc1c[nH]cn1)CCNC(=O)c1c2ccccc2nc2ccccc12`, the K came out at 16000 M⁻¹.
